The nature of this assay: Sensory evaluation of sourness-masking effect in yoghurt drink by five special panelists. The following applies: for Evaluation Result (sourness-masking effect): score 0-3, stored at 10° C. for 10 days. As to the method: The peptide mixture obtained in the above procedure 1 was centrifuged (20,000 G) to obtain an aqueous layer. The aqueous layer was treated with UF membranes of 20 nm, 5 kDa and 1 kDa, respectively, and permeate solutions were collected. Each permeate solution obtained through the UF membranes or the peptide mixture before treatment were added to a commercially available yoghurt drink. After the yoghurt drink was stored at 10° C. for 10 days, five special panelists conducted sensory evaluation regarding a sourness-masking effect. Note that each sample was prepared such that the addition amount is 0.1% calculated in terms of the peptide mixture. A commercially available yoghurt drink without addition was used as control. Evaluation was performed by scoring from 0 to 3 shown in Table 1 at 0.5 point intervals.
In the same manner as in the above procedure 2, the obtained 13 fractions were added to a commercially available yoghurt drink, respectively. After the yoghurt drink was stored at 10° C. for 10 days, five special panelists conducted sensory evaluation regarding a sourness-masking effect. Each sample was prepared such that the addition amount is 0.1% calculated in terms of the peptide mixture. The evaluation method is the same as in the above procedure 2.
In the same manner as in the above procedure 2, the obtained four fractions were added to a commercially available yoghurt drink, respectively. After the yoghurt drink was stored at 10° C. for 10 days, five special panelists conducted sensory evaluation regarding a sourness-masking effect. Each sample was prepared such that the addition amount is 0.1% calculated in terms of the peptide mixture. The evaluation method is the same as in the above procedure 2.
The five kinds of peptide identified in Example 1 and phenylalanine were added to a commercially available yoghurt drink, respectively. After the yoghurt drink was stored at 10° C. for 10 days, five special panelists conducted sensory evaluation regarding a sourness-masking effect. The peptide mixture obtained in Example 1-1 was added in an amount of 0.1%, the peptides and phenylalanine obtained in Example 1-5 were added in an amount of 20 ppb and the mixture of VP+LLL was added in an amount of 10 ppb each. The evaluation method was the same as in Example 1-2.
VP and LLL were mixed in the mixture ratio within the range from 1:9 to 9:1 and each mixture was added to a commercially available yoghurt drink in an amount of 0.01 ppm. After the yoghurt drink was stored at 10° C. for 10 days, five special panelists conducted sensory evaluation regarding a sourness-masking effect. The evaluation method is the same as in the Example 1-2.
VP, LLL and the mixture of equal parts of VP and LLL were added to a commercially available yoghurt drink in an amount of 0.001 ppm, 0.01 ppm and 0.1 ppm, respectively. After the yoghurt drink was stored at 10° C. for 10 days, five special panelists conducted sensory evaluation regarding a sourness-masking effect. The evaluation method is the same as in the Example 1-2.

Where [1] appears, read: Example 4, addition concentration 0.001 ppm.
[2] abbreviates: Example 4, addition concentration 0.01 ppm.
[3] abbreviates: Example 4, addition concentration 0.1 ppm.

The record followed here is patent publication US9901111B2, “Taste-improving peptide” (Takasago International Corporation, priority 2011, dated 2018).

For the molecule Val-Pro-Pro [VPP, reference compound], for the setting “Example 2, added at 20 ppb”, the “Evaluation Result (sourness-masking effect)” value (“Evaluation Result” below) is listed as 0.2.
Still for that read-out and setting: the value for “Leu-Leu-Leu-Leu (LLLL; printed: Leu-Leu-Leu-Leu) [reference compound]” was 0.3; that for `N[C@@H](Cc1ccccc1)C(=O)O` [F, phenylalanine, reference compound] was 0.1.
Consider Leu-Leu-Leu [LLL], for which, for the setting “Example 2, added at 20 ppb”, the “sourness-masking effect, in words” value is “remarkable sourness-masking effect”. The “Evaluation Result” value is on record as 1.4 (Example 2, added at 20 ppb); 1.3 (Example 3, added at 0.01 ppm); 0.3 under setting [1]; 1.4 under setting [2]; 1.5 under setting [3].
Regarding Leu-Pro-Pro [LPP, reference compound], where the note is “Example 2, added at 20 ppb”, the “Evaluation Result” value is 0.3.
Consider Val-Pro [VP], for which the “sourness-masking effect, in words” value (Example 2, added at 20 ppb) was “remarkable sourness-masking effect”. In addition, the “Evaluation Result” value is, setting by setting: (Example 2, added at 20 ppb) 1.3; (Example 3, added at 0.01 ppm) 1.4; under setting [1], 0.2; under setting [2], 1.5; under setting [3], 1.5.
